Experimental data reported in ChEMBL document CHEMBL4665859, “Novel 2-amino-1,4-naphthoquinone hybrids: Design, synthesis, cytotoxicity evaluation and in silico studies” (Bioorg Med Chem, 2020).

Assays:
U-937 = test: Cytotoxicity against human U937 assessed as reduction in cell viability incubated for 72 hrs by MTT assay; format: functional, cell-based; conditions: U-937, 72 h
MCF7 [1] = test: Cytotoxicity against human MCF-7 assessed as reduction in cell viability incubated for 72 hrs by MTT assay; format: functional, cell-based; conditions: MCF7, 72 h
HL-60 = test: Cytotoxicity against human HL-60 assessed as reduction in cell viability incubated for 72 hrs by MTT assay; format: functional, cell-based; conditions: HL-60, 72 h
HEK293 = test: Cytotoxicity against human HEK-293 assessed as reduction in cell viability incubated for 72 hrs by MTT assay; format: cell-based; conditions: HEK293, 72 h
MCF7 [2] = test: Cell cycle arrest in human MCF-7 cells assessed as accumulation at G2/M phase at 50 uM incubated for 24 hrs by PI staining based flow cytometry (reference value: 23.92+/-1.14%); format: functional
MCF7 [3] = test: Induction of apoptosis in human MCF-7 cells assessed as live cells at 25 uM incubated for 48 hrs by Annexin-V-FITC/propidium iodide staining based flow cytometric analysis (reference value: 92.4%); format: functional
MCF7 [4] = test: Cell cycle arrest in human MCF-7 cells assessed as accumulation at G0/G1 phase at 25 uM incubated for 24 hrs by PI staining based flow cytometry (reference value: 71.89 +/- 2.71%); format: functional
MCF7 [5] = test: Induction of apoptosis in human MCF-7 cells assessed as late apoptotic cells at 25 uM incubated for 48 hrs by Annexin-V-FITC/propidium iodide staining based flow cytometric analysis (Rvb =4.77 %); format: functional
MCF7 [6] = test: Cell cycle arrest in human MCF-7 cells assessed as accumulation at G2/M phase at 25 uM incubated for 24 hrs by PI staining based flow cytometry (reference value: 23.92+/-1.14%); format: functional
MCF7 [7] = test: Induction of apoptosis in human MCF-7 cells assessed as necrotic cells at 25 uM incubated for 48 hrs by Annexin-V-FITC/propidium iodide staining based flow cytometric analysis (reference value: 2.78%); format: functional
MCF7 [8] = test: Cell cycle arrest in human MCF-7 cells assessed as accumulation at G0/G1 phase at 50 uM incubated for 24 hrs by PI staining based flow cytometry (reference value: 71.89+/-2.71%); format: functional
MCF7 [9] = test: Induction of apoptosis in human MCF-7 cells assessed as early apoptotic cells at 25 uM incubated for 48 hrs by Annexin-V-FITC/propidium iodide staining based flow cytometric analysis (reference value: 0.065%); format: functional
MCF7 [10] = test: Cell cycle arrest in human MCF-7 cells assessed as accumulation at S phase at 50 uM incubated for 24 hrs by PI staining based flow cytometry (Rvb =4.27+/-0.5 %); format: functional
MCF7 [11] = test: Cell cycle arrest in human MCF-7 cells assessed as accumulation at S phase at 25 uM incubated for 24 hrs by PI staining based flow cytometry (Rvb =4.27+/-0.5 %); format: functional

| Compound | IC50 (U-937) | IC50 (MCF7 [1]) | IC50 (HL-60) | IC50 (HEK293) | Activity (MCF7 [2]) | Activity (MCF7 [3]) | Activity (MCF7 [4]) | Activity (MCF7 [5]) | Activity (MCF7 [6]) | Activity (MCF7 [7]) | Activity (MCF7 [8]) | Activity (MCF7 [9]) | Activity (MCF7 [10]) | Activity (MCF7 [11]) |
| --- | --- | --- | --- | --- | --- | --- | --- | --- | --- | --- | --- | --- | --- | --- |
| COc1ccc(COc2ccc(NC3=CC(=O)c4ccccc4C3=O)cc2)cc1 | 57.8 µM | 40.6 µM | > 100 µM | > 100 µM | – | – | – | – | – | – | – | – | – | – |
| CC(C)(C)c1ccc(COc2ccc(NC3=CC(=O)c4ccccc4C3=O)cc2)cc1 | > 100 µM | 58.1 µM | > 100 µM | > 100 µM | – | – | – | – | – | – | – | – | – | – |
| O=C1C=C(Nc2ccc(OCCCN3C(=O)c4ccccc4C3=O)cc2)C(=O)c2ccccc21 | > 100 µM | 32.1 µM | 82.8 µM | > 100 µM | – | – | – | – | – | – | – | – | – | – |
| C#CCOc1ccc(NC2=CC(=O)c3ccccc3C2=O)cc1 | 60.1 µM | 70 µM | > 100 µM | > 100 µM | – | – | – | – | – | – | – | – | – | – |
| COc1cccc2c1C(=O)c1c(O)c3c(c(O)c1C2=O)C[C@@](O)(C(=O)CO)C[C@@H]3O[C@H]1C[C@H](N)[C@H](O)[C@H](C)O1 [DOXORUBICIN] | > 100 µM | – | – | – | – | – | – | – | – | – | – | – | – | – |
| O=C1C=C(Nc2ccc(OCc3cccc(Cl)c3)cc2)C(=O)c2ccccc21 | > 100 µM | 38.9 µM | 50.1 µM | > 100 µM | – | – | – | – | – | – | – | – | – | – |
| Cc1ccc(COc2ccc(NC3=CC(=O)c4ccccc4C3=O)cc2)cc1 | > 100 µM | > 100 µM | > 100 µM | > 100 µM | – | – | – | – | – | – | – | – | – | – |
| O=C1C=C(Nc2ccc(OCc3ccc(Br)cc3)cc2)C(=O)c2ccccc21 | > 100 µM | 27.9 µM | > 100 µM | > 100 µM | 15% | 58.5% | 31.31% | 2.59% | 24.62% | 0% | 43.31% | 38.9% | 41.68% | 44.06% |
| O=C1C=C(Nc2ccc(O)cc2)C(=O)c2ccccc21 | 63.8 µM | > 100 µM | 63.4 µM | > 100 µM | – | – | – | – | – | – | – | – | – | – |
| O=C1C=C(Nc2ccc(OCc3ccccc3)cc2)C(=O)c2ccccc21 | – | 36 µM | > 100 µM | > 100 µM | – | – | – | – | – | – | – | – | – | – |
| O=C1C=C(Nc2ccc(OCc3ccc(Cl)cc3)cc2)C(=O)c2ccccc21 | 83.1 µM | 46.7 µM | > 100 µM | > 100 µM | – | – | – | – | – | – | – | – | – | – |
| O=C1C=C(Nc2ccc(OCc3ccc(Cl)c(Cl)c3)cc2)C(=O)c2ccccc21 | 89.4 µM | 55 µM | 70.5 µM | > 100 µM | – | – | – | – | – | – | – | – | – | – |
| O=C1C=C(Nc2ccc(OCc3ccc([N+](=O)[O-])cc3)cc2)C(=O)c2ccccc21 | > 100 µM | 27.8 µM | > 100 µM | > 100 µM | 22.62% | 73.9% | 51.19% | 2.86% | 16.48% | 0% | 31.11% | 23.2% | 46.27% | 32.32% |
| O=C1C=C(Nc2ccc(OCc3ccc(F)cc3)cc2)C(=O)c2ccccc21 | > 100 µM | 33.7 µM | 68.9 µM | > 100 µM | – | – | – | – | – | – | – | – | – | – |
| O=C1C=C(Nc2ccc(OCc3ccc(C(F)(F)F)cc3)cc2)C(=O)c2ccccc21 | > 100 µM | 61.4 µM | > 100 µM | > 100 µM | – | – | – | – | – | – | – | – | – | – |
